According to PubChem BioAssay (NCI):
Where “and” joins values, the source holds several entries; their conditions need not be identical. Identical values can stand only once.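 Following 48 hours of exposure in 96-well plates, responses at five concentrations were used to interpolate endpoints linearly. The concentration for 50% growth inhibition is given as GI50. TGI denotes the concentration required for complete inhibition of growth.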

Experiments:
Assay in all cases: NCI tumour cell line growth inhibition, 48 h
[1] = system: CAKI-1 renal
[2] = system: A549 NSCLC
[3] = system: UO-31 renal
[4] = system: UACC-257 melanoma
[5] = system: SK-MEL-28 melanoma
[6] = system: CCRF-CEM leukemia
[7] = system: COLO 205 colon
[8] = system: A498 renal
[9] = system: SK-OV-3 ovarian
[10] = system: HCT-116 colon

Row | SMILES | GI50 [1] | TGI [1] | GI50 [2] | TGI [2] | GI50 [3] [µM] | TGI [3] | GI50 [4] | TGI [4] | GI50 [5] [µM] | TGI [5] | GI50 [6] | GI50 [7] | TGI [7] | GI50 [8] [µM] | TGI [8] | GI50 [9] [µM] | TGI [9] | GI50 [10] | TGI [10] | TGI [6] [µM]
1 | COC1CC(C)C(OC)c2cc(O)cc(c2O)NC(=O)/C(C)=C/C=C\C(C)C(OC(N)=O)/C(C)=C\C(C)C1OC (centres undefined) | 6.93 µM and 7.45 µM | 16.3 µM and 14.4 µM | 0.435 µM and 1.84 µM | 27.6 µM and 21.1 µM | 8.32 | 17.4 µM and 15.6 µM | 0.561 µM and 0.693 µM | 10.3 µM and 10.5 µM | 0.291 | 6.89 µM and 9.62 µM | 0.0356 µM and 0.148 µM | 0.0414 µM and 0.0785 µM | 7.12 µM and 2.8 µM | 18.4 | 38.1 µM and 14.8 µM | 0.171 | 8.02 µM and 14.7 µM | 0.0642 µM and 0.571 µM | 8.1 µM and 9.01 µM | 
2 | CCC#CC[C@H](O)C/C=C1/C(=O)C=C[C@@H]1C/C=C\CCCC(=O)OC | 1.48 µM | 4.65 µM | 1.6 µM | 5.52 µM | 0.864 | 1.66 µM | 0.856 µM | 2.43 µM | 1.12 | 3.25 µM | 0.413 µM | 1.14 µM | 2.86 µM | 6.82 | 13.7 µM | 3.21 | 10.2 µM | 0.235 µM | 1.1 µM | 5.66
3 | CCN(CCCl)CCCCCNc1c2ccccc2nc2ccc(OC)cc12 |  | 16.7 µM |  | 4.4 µM |  | 12.7 µM |  | 10.8 µM |  | 12.1 µM |  |  | 3.03 µM |  | 3.52 µM |  | 3.62 µM |  | 1.43 µM | 2.78
4 | O=C(O)C1CCN(Cc2oc(CO)cc(=O)c2O)C1 (centres undefined) |  | > 100 µM |  | > 100 µM |  | > 100 µM |  | > 100 µM |  | > 100 µM |  |  | > 100 µM |  | > 100 µM |  | > 100 µM |  | > 100 µM | > 100
5 | Cn1cnc([N+](=O)[O-])c1Sc1nnnn1C |  | 31.8 µM |  | > 100 µM |  | 32.6 µM |  | 29.8 µM |  | 27.3 µM |  |  | 25.3 µM |  | > 100 µM |  | > 100 µM |  | 28 µM | 25
6 | Cc1ccc(NC(=O)C(=O)C(C(=O)c2ccc3ccccc3c2)C2OC(=O)c3ccccc32)c(C)c1 (centres undefined) |  | 32 µM |  | 62.8 µM |  | 36.7 µM |  | 41.4 µM |  | 31.2 µM |  |  | 25.2 µM |  | 20 µM |  | 60.4 µM |  | 20.1 µM | 78.1
7 | CC(CN(C)C)S(=O)(=O)c1ccc(-c2cnc(N)c(C(=O)Nc3ccccc3)n2)cc1 (centres undefined) | 3.02 µM | > 50.8 µM | 2.86 µM | > 46.1 µM | 4.78 | 28.7 µM | 2.04 µM | 5.06 µM | 7.22 | 21.4 µM | 2.61 µM | 2.74 µM | 8.56 µM | 2.41 | 9.02 µM | 6.04 | > 54.5 µM | 4.88 µM | 21.2 µM | 29.6
8 | O=C1C=CC(=O)C2C1Cc1ccccc1C2c1ccccc1 (centres undefined) |  | > 100 µM |  | > 100 µM |  | > 100 µM |  | 70.2 µM |  | > 100 µM |  |  | 35.5 µM |  | 73.1 µM |  | > 100 µM |  | > 100 µM | 68.7
9 | COc1cccc(-n2ncc3c(N/N=C/c4ccc(C)cc4)ncnc32)c1 | > 25 µM | > 25 µM | > 25 µM | > 25 µM | > 25 | > 25 µM | > 21.7 µM | > 25 µM | > 25 | > 25 µM | > 25 µM | 9.56 µM | > 25 µM | > 5.43 | > 25 µM | > 25 | > 25 µM | > 25 µM | > 25 µM | > 25
10 | O=C(Nc1ccc2ncnc(Nc3ccc(Oc4cccc(F)c4)c(Cl)c3)c2c1)c1ccc(CN2CCOCC2)cc1 | 2.18 µM | 10.5 µM | 2.35 µM | 10.3 µM | 1.81 | 8.59 µM | 2.36 µM | 7.1 µM | 2.62 | 9.38 µM | 2.95 µM | 2.56 µM | 8.34 µM | 3.28 | 65.6 µM | 1.66 | > 100 µM | 2.55 µM | 8.94 µM | 20.7
11 | O=C1OC(c2ccccc2)(c2ccccc2)c2ccc3ccc(F)cc3c21 |  | > 100 µM |  | > 100 µM |  | > 100 µM |  | > 100 µM |  | > 100 µM |  |  | > 100 µM |  | > 100 µM |  | > 100 µM |  | > 100 µM | > 100
12 | COC12C=C/C(=C(/C(=O)OCCSc3ccnn3C)C(=O)CCCCCCCCC3(OC)C=C/C(=C(/C(=O)OCCSc4ccnn4C)C(=O)CCCCCCCC1)O3)O2 | 1.18 µM | > 32.5 µM | 0.882 µM | 2.66 µM | 0.942 | 11.1 µM | 1.35 µM | 11.4 µM | 1.09 | 8.24 µM | 1.09 µM | 0.814 µM | 2.15 µM | 0.645 | 2.2 µM | 1.66 | 24.9 µM | 0.66 µM | 1.37 µM | > 32.5
13 | COc1ccc(-c2nsc3c2NC(=O)CC3c2ccc3c(c2)OCCO3)cc1 (centres undefined) | 0.429 µM | > 100 µM | 0.603 µM | > 100 µM | 2.19 | > 100 µM | 0.981 µM | > 100 µM | 2.7 | > 100 µM | 0.406 µM | 0.431 µM | 2.18 µM | 0.212 | 1.03 µM | 0.476 | 8.46 µM | 0.526 µM | > 100 µM | > 100
14 | O=C1NC(O)c2ccccc2O1 (centres undefined) |  | > 100 µM |  | > 100 µM |  | > 100 µM |  | > 100 µM |  | > 100 µM |  |  | > 100 µM |  | > 100 µM |  | > 100 µM |  | > 100 µM | > 100
15 | CCn1c(-c2c(Cl)cc(O)cc2Cl)cc2c(Cl)cc(O)cc21 |  | 30.5 µM |  | 44.2 µM |  | > 100 µM |  | 26 µM |  | 10.1 µM |  |  | 36.8 µM |  | 30.1 µM |  | 37.1 µM |  | > 100 µM | > 100
16 | Cc1c(N)nc([C@H](CC(N)=O)NC[C@H](N)C(N)=O)nc1C(=O)N[C@H](C(=O)N[C@H](C)[C@@H](O)CC(=O)N[C@H](C(=O)NC(O[C@@H]1O[C@@H](C)[C@@H](N)[C@@H](O)[C@H]1O)C(O)c1nc(-c2nc(C(=O)NCCCCN)cs2)cs1)[C@@H](C)O)[C@@H](O[C@@H]1O[C@@H](CO)[C@@H](O)[C@H](O)[C@@H]1O[C@H]1O[C@H](CO)[C@@H](O)[C@H](OC(N)=O)[C@@H]1O)c1c[nH]cn1 (some centres undefined) |  | > 50 µM |  | > 50 µM |  | > 50 µM |  | > 50 µM |  | > 50 µM |  |  | > 50 µM |  | > 50 µM |  | > 50 µM |  | > 50 µM | > 50
